The source of these data is ChEMBL document CHEMBL3351379, “Dihydropyrrolo[2,3-d]pyrimidines: Selective Toll-Like Receptor 9 Antagonists from Scaffold Morphing Efforts” (ACS Med Chem Lett, 2014).

Each structure is given as a SMILES string. Converted amounts (≈) assume the structure as drawn. Bounds are passed on as bounds.

The species named for series [1] is Homo sapiens. The series is described as follows: Metabolic stability in human assessed per mg protein. The format is ADME.
In series [2] the target is T1, Toll-like receptor 9 (Homo sapiens, UniProt Q9NR96).
T1 sequence (Q9NR96 whole entry): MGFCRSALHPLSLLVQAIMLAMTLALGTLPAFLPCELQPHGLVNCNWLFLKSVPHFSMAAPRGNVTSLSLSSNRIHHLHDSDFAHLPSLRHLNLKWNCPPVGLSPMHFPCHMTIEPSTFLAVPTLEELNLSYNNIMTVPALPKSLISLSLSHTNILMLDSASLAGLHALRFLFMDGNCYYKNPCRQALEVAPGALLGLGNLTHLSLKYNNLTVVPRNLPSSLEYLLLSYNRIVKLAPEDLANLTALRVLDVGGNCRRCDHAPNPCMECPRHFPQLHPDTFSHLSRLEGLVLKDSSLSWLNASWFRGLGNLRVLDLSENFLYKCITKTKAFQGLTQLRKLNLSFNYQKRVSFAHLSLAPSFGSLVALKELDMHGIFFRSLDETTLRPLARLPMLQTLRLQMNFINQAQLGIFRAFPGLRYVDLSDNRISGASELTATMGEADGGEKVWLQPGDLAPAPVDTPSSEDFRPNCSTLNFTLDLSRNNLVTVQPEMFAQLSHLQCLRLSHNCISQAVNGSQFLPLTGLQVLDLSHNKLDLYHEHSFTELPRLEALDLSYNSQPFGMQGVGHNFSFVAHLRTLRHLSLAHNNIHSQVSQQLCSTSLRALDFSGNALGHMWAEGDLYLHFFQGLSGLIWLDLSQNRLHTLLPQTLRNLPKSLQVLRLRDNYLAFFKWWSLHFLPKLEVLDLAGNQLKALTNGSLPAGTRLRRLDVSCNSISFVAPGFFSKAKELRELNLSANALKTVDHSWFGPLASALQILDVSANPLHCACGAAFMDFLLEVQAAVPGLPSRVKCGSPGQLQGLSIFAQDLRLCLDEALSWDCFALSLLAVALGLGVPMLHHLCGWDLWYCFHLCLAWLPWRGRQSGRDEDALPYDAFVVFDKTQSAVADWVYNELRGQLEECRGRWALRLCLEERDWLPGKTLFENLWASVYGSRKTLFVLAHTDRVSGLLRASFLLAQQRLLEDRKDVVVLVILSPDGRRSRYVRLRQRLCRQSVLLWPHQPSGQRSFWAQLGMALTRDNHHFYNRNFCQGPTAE
The series is described as follows: Antagonist activity at human TLR9 transfected in HEK293 cells after 6 hrs by NF-kappaB luciferase reporter assay. Type of series: cell-based.

The test system of series [3] is HEK293. The series is described as follows: Selectivity ratio of IC50 for human TLR7 transfected in HEK293 cells to IC50 for human TLR9 transfected in HEK293 cells. The format is cell-based.
For series [4], the system named is Splenocyte. The series is described as follows: Inhibition of CpG-induced IL-6 production in C57BL/6 mouse splenocytes after 24 hrs by ELISA. The format is functional, cell-based. Particulars: C57BL/6, Splenocyte. Background: In an ELISA, binding on a coated surface is turned into a signal by an enzyme label.
Series [5] can be described thus: Aqueous solubility of the compound at pH 7.4. The format is physicochemical.
Series [6] concerns PBMC. The series is described as follows: Inhibition of CpG-induced IL-6 production in human PBMC after 24 hrs by ELISA. The format is functional, cell-based.
The target of series [7] is T2, Toll-like receptor 7 (Homo sapiens, UniProt Q9NYK1).
T2 sequence (Q9NYK1 whole entry): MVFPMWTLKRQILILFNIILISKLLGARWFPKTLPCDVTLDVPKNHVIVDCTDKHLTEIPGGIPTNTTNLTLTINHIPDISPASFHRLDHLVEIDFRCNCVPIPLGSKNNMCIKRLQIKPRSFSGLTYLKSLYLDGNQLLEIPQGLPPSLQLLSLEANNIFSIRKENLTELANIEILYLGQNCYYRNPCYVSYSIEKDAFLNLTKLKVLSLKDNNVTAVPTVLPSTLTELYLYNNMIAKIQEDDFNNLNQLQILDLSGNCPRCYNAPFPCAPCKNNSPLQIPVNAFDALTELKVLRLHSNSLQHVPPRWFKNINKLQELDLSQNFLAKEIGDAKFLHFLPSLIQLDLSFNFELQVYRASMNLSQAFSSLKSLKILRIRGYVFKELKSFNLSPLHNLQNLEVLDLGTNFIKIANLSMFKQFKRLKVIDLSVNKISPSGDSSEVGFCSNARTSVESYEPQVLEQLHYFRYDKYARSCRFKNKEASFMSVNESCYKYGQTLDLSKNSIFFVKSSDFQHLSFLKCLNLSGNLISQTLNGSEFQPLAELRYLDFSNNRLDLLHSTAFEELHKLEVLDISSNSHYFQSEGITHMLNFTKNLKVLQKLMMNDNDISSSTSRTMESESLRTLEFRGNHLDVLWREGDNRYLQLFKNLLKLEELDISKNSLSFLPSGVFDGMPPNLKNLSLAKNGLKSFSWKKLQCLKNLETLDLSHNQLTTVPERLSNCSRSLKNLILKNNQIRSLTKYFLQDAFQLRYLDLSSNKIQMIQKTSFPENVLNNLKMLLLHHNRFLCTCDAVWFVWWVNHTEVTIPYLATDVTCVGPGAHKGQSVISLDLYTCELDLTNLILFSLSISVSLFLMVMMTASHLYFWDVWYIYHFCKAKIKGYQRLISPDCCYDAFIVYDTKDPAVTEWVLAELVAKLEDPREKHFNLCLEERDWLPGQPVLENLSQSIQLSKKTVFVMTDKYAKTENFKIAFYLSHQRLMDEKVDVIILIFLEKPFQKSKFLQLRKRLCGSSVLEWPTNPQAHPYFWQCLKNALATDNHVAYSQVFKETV
Kind of series: Antagonist activity at human TLR7 transfected in HEK293 cells assessed as hydrolysis of pNPP after 24 hrs by SEAP reporter assay. The format is cell-based. (Reporter assays use an easily measured gene product as a stand-in for the process of interest.)

Series [8] relates to Mus musculus. Kind of series: Inhibition of IL-6 production in iv dosed C57BL/6 mouse plasma compound administered 1 hr prior to CpG1826 treatment measured after 2 hrs by ELISA. Type of series: functional. Conditions: C57BL/6, Plasma.
Series [9] deals with T3, Toll-like receptor 8 (Homo sapiens, UniProt Q9NR97).
T3 sequence (Q9NR97 whole entry): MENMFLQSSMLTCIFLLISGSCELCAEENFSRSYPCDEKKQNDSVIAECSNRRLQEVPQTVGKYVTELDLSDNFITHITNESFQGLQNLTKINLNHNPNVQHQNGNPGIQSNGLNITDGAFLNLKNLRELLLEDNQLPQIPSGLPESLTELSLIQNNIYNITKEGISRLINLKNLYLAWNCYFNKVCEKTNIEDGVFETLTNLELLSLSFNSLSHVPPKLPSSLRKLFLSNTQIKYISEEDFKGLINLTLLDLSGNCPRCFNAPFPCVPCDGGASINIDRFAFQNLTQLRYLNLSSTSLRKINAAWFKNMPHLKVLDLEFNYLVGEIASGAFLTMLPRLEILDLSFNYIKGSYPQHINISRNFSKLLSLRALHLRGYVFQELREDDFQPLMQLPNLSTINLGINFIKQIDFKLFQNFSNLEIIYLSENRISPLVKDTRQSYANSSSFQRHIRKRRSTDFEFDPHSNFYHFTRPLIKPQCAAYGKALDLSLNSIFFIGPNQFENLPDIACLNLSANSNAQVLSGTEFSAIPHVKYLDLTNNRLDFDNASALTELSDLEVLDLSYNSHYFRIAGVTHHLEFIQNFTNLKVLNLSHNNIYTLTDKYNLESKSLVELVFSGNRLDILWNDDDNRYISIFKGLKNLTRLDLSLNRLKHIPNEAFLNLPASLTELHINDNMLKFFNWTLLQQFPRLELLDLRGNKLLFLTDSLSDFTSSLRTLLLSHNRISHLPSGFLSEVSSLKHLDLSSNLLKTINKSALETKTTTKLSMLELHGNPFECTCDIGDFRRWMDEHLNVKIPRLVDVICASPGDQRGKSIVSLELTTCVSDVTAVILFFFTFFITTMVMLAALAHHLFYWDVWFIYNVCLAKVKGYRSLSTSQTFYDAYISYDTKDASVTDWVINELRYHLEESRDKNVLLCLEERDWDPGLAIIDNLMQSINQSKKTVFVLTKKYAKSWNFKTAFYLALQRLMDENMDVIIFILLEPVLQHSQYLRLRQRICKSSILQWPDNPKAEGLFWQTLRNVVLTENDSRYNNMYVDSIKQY
Kind of series: Antagonist activity at human TLR8 transfected in HEK293 cells after 6 hrs by NF-kappaB luciferase reporter assay. The format is cell-based.

Series [10] deals with Mus musculus. Kind of series: Inhibition of IL-6 production in iv dosed C57BL/6 mouse peritoneal lavage fluid compound administered 1 hr prior to CpG1826 treatment measured after 2 hrs by ELISA. Type of series: functional, organism-based.

Turning to `CN1CCN(c2ccc(-c3ncc4c(n3)N(CCCN3CCCC3)CC4)cc2)CC1`, the Stability in series [1] was 71 µL/min/mg. In series [2], it took 3.9 nM to reach half-maximal inhibition (IC50).
On to `CN1CCN(c2ccc(-c3nc(Cl)c4c(n3)N(CCCN3CCCC3)CC4)cc2)CC1`, for which, in series [2], the IC50 (as a rule, the concentration needed to halve the response being measured) amounted to 84 nM.
The same measure, in the same setting: with `Cc1cnc(-c2ccc(N3CCN(C)CC3)cc2)nc1NCCN1CCOCC1` the figure was 120 nM; with `CN1CCN(c2cccc(-c3ncc4c(n3)N(CCCN3CCOCC3)CC4)c2)CC1`, 56 nM.
With `OCCN1CCN(c2ccc(-c3ncc4c(n3)N(CCCN3CCOCC3)CC4)cc2)CC1`, the Ratio IC50 in [3] came to 75. Moreover, the IC50 in series [4] was 74 nM; in [6], 244 nM; in [7], 970 nM; in [2], 13 nM; in [9], more than 10000 nM. In [5], the solubility (commonly the concentration that dissolves in the medium under given conditions) is more than 10000 µg/mL. Moreover, the ED50 – broadly, the midpoint of the dose-response relation – in [8] is 0.8 mg/kg. For the same molecule, in series [10], the inhibition entry was “Dose-dependent effect”.
Molecule `Cc1nc(-c2ccc(N3CCN(C)CC3)cc2)nc2c1CCN2CCN1CCCC1` yielded a 50% inhibitory concentration (IC50) in series [2] of 11 nM.
In the case of `CN1CCN(c2ccc(-c3nc4c(c(NCCN5CCOCC5)n3)CCCC4)cc2)CC1`, the Ratio IC50 in [3] came out at 71. In [2], this molecule gave a concentration for half-maximal inhibition (IC50) of 27 nM.
Molecule `Cc1nc(-c2ccc(N3CCN(C)CC3)cc2)nc2c1CCN2CCCN1CCCC1` displayed a Stability in series [1] of 35 µL/min/mg. Besides, in series [2], the half-inhibitory concentration (IC50) was found to be 3.5 nM.
As for `CN1CCN(c2ccccc2-c2ncc3c(n2)N(CCCN2CCOCC2)CC3)CC1`, the midpoint of inhibition in [2], the IC50, lay at 56 nM.
Molecule `CN1CCN(c2ccc(-c3ncc4c(n3)N(CCCN3CCOCC3)CC4)cc2)C(=O)C1` returned a half-maximal inhibitory concentration (IC50) in series [2] of more than 1000 nM.
In series [1], `Cc1nc(-c2ccc(N3CCN(C)CC3)cc2)nc(NCCN2CCOCC2)c1C` came in with a Stability of 69 µL/min/mg. Further, it took 35 nM to reach half-maximal inhibition in series [2] (IC50).
In the same order, the values of `Cc1nc(-c2ccc(N3CCN(C)CC3)cc2)nc2c1CCN2CCCN1CCOCC1` are less than 10 µL/min/mg and 16 nM.
On to `CN1CCN(c2ccc(-c3nccc(NCCN4CCOCC4)n3)cc2)CC1`, for which, in [2], the 50% inhibitory concentration (IC50) worked out at 190 nM.
`CN1CCN(c2ccc(-c3ncc4c(n3)N(CCCN3CCOCC3)CC4)cc2)CC1`: the Ratio IC50 in series [3] is more than 50. The same molecule registered a solubility in [5] of 1100 µg/mL (≈ 2600 µM). The same molecule had an IC50 in [2] of 8.6 nM.
For `CN1CCN(c2ccc(-c3ncc4c(n3)N(CCCCN3CCOCC3)CC4)cc2)CC1`, the IC50 in series [2] amounted to 11 nM.
`COc1cc2nc(-c3ccc(N4CCN(C)CC4)cc3)nc(NCCN3CCOCC3)c2cc1OC` returned a solubility in [5] of 120 µg/mL (≈ 244 µM). Moreover, in [2], the IC50 turned out to be 4.6 nM.
In series [2], `COCCN1CCN(c2ccc(-c3ncc4c(n3)N(CCCN3CCOCC3)CC4)cc2)CC1` showed a half-maximal inhibitory concentration (IC50) of 28 nM.
On the same count and under the same terms, the value for `CN1CCN(c2ccc(-c3ncc4c(n3)N(CCN3CCOCC3)CC4)cc2)CC1` was 73 nM.
As for `Cc1nc(-c2ccc(N3CCN(C)CC3)cc2)nc2c1CCN2CCN1CCOCC1`, in series [3], the Ratio IC50 came to 93. In series [1], the Stability was less than 10 µL/min/mg. This molecule came in with an IC50 in series [2] of 20 nM.
The molecule `CN1CCN(c2ccc(-c3nc(N(C)C)c4c(n3)N(CCCN3CCCC3)CC4)cc2)CC1` returned an IC50 in series [2] of 73 nM.
The same measure, in the same setting: with `COc1nc(-c2ccc(N3CCN(C)CC3)cc2)nc2c1CCN2CCCN1CCCC1` the figure was 120 nM.
On the same count and under the same terms, the value for `CN1CCN(c2ccc(-c3nc4c(c(NCCN5CCOCC5)n3)COCC4)cc2)CC1` was 190 nM.
